In article PMC12592486 (Scientific Reports, 2025):

Legend:
[1] = target: T1, α-glucosidase (Saccharomyces cerevisiae, UniProt P53341); experiment: α-glucosidase inhibition assay; assay type: biochemical, S. cerevisiae
[2] = target: T1, α-glucosidase; experiment: Enzyme kinetics study; assay type: biochemical, S. cerevisiae

T1 sequence (P53341 whole entry): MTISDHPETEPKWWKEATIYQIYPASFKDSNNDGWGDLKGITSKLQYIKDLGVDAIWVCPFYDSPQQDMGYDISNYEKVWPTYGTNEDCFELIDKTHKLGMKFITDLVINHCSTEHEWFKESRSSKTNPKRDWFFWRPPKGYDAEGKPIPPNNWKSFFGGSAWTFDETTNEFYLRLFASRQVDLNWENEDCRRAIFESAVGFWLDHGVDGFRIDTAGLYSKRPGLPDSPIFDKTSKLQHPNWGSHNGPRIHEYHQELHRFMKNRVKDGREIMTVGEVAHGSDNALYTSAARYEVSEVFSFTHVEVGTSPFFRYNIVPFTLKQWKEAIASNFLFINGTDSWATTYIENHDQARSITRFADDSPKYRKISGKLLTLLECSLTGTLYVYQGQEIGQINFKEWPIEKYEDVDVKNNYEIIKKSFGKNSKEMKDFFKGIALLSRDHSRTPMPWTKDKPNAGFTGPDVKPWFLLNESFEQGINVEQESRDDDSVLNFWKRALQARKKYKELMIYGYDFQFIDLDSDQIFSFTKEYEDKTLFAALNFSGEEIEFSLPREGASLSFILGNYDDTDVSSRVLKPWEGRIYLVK

Row | SMILES | times/folds more active than the standard inhibitor acarbose [1] | also measured
1 | COc1ccc(NC(=S)NN=Cc2cn(S(=O)(=O)c3ccc(Cl)cc3)c3ccccc23)cc1 [Compound 5b, 2-({1-[(4-Chlorophenyl)sulfonyl]-1H-indol-3-yl}methylene)-N-(4-methoxyphenyl)hydrazine-1-carbothioamide] | – | folds more active than 5k ([1]; 4-methoxyphenyl vs 3-methoxyphenyl): 1.3 folds
2 | CC(C)CNC(=S)NN=Cc1cn(S(=O)(=O)c2ccc(Cl)cc2)c2ccccc12 [Compound 5p, 2-({1-[(4-Chlorophenyl)sulfonyl]-1H-indol-3-yl}methylene)-N-isobutylhydrazine-1-carbothioamide] | fifteen | –
3 | O=S(=O)(c1ccc(Cl)cc1)n1cc(C=NNC(=S)Nc2ccc(Br)cc2)c2ccccc21 [Compound 5s, N-(4-Bromophenyl)-2-({1-[(4-chlorophenyl)sulfonyl]-1H-indol-3-yl}methylene)hydrazine-1-carbothioamide] | more than 100 folds | –
4 | O=S(=O)(c1ccc(Cl)cc1)n1cc(C=NNC(=S)Nc2ccc(Br)cc2F)c2ccccc21 [Compound 5u, N-(4-Bromo-2-fluorophenyl)-2-({1-[(4-chlorophenyl)sulfonyl]-1H-indol-3-yl}methylene)hydrazine-1-carbothioamide] | 162 folds | better inhibition of 5u compared to 5p ([1]; most active vs least active inhibitor): about 11 folds; Ki [2]: 3.57 ± 0.0084 µM; type of inhibition ([2]; Km increases, Vmax constant): competitive type inhibitor
5 | O=S(=O)(c1ccc(Cl)cc1)n1cc(C=NNC(=S)Nc2c(Cl)cccc2Cl)c2ccccc21 [Compound 5w, 2-({1-[(4-Chlorophenyl)sulfonyl]-1H-indol-3-yl}methylene)-N-(2,6-dichlorophenyl)hydrazine-1-carbothioamide] | more than 100 folds | –
